The source made the active and inactive calls. Rule as the data show it, for most assays here: actives have a measured Kd and inactives only a lower limit.
Assays:
[1] = molecular target: T1, Discoidin domain-containing receptor 2 (Homo sapiens, UniProt Q16832)
T1 sequence (Q16832 whole entry): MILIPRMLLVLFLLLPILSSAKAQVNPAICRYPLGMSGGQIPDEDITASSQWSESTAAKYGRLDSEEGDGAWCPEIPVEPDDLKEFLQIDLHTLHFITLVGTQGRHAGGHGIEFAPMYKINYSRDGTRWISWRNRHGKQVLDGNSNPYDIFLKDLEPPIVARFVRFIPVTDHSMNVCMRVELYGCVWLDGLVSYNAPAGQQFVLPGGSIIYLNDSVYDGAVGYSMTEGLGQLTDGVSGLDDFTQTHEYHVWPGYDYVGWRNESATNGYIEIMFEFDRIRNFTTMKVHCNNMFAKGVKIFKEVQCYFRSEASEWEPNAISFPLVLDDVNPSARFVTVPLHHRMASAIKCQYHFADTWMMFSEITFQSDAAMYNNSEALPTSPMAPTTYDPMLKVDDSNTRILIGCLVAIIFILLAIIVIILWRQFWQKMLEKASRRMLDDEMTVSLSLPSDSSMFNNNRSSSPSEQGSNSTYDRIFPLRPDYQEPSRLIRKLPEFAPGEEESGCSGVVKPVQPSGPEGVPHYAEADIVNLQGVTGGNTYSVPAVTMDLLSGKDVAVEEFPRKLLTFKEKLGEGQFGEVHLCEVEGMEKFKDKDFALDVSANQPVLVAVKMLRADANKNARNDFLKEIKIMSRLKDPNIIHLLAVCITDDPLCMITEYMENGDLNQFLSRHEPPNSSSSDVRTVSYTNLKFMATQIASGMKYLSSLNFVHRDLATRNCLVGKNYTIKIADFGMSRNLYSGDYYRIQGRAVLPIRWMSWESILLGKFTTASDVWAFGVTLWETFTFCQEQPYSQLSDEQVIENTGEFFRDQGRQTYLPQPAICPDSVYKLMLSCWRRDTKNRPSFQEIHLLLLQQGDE

[2] = molecular target: T2, Non-receptor tyrosine-protein kinase TNK1 (Homo sapiens, UniProt Q13470)
T2 sequence (Q13470 whole entry): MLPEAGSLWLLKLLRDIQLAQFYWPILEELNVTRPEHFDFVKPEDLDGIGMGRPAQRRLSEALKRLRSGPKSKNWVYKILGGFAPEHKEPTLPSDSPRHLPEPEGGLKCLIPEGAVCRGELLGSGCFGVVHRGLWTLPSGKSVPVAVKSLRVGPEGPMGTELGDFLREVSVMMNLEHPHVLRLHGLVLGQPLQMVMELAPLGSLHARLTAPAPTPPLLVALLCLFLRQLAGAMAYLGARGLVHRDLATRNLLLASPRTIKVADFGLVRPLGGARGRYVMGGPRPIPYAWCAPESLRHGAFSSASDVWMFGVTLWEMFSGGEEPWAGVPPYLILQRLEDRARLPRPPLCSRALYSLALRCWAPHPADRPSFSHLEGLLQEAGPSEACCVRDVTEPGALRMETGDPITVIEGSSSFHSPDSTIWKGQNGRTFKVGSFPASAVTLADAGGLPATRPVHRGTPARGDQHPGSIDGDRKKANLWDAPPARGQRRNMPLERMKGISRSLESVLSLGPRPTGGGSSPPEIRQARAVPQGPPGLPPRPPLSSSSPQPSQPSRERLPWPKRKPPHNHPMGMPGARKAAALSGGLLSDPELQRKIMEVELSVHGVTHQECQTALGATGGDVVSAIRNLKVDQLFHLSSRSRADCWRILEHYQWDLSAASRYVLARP

[3] = molecular target: T3, Serine/threonine-protein kinase 4 (Homo sapiens, UniProt Q13043)
T3 sequence (Q13043 whole entry): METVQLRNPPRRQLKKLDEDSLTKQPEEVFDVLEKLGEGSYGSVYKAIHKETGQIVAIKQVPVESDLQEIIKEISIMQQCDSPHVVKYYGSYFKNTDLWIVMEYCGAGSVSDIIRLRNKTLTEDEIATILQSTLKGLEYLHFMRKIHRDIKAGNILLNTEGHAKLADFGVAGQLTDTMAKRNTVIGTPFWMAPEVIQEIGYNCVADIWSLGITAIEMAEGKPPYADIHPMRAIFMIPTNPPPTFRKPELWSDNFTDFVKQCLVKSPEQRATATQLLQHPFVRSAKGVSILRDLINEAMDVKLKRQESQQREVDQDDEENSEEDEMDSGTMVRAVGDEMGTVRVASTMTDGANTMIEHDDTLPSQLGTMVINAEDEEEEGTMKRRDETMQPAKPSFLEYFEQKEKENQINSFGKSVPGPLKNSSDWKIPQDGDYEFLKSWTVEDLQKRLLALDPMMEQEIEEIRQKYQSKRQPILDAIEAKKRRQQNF

[4] = molecular target: Tyrosine-protein kinase Lck (Homo sapiens, UniProt P06239)
Sequence of Tyrosine-protein kinase Lck (P06239 whole entry, the tested form may be a part): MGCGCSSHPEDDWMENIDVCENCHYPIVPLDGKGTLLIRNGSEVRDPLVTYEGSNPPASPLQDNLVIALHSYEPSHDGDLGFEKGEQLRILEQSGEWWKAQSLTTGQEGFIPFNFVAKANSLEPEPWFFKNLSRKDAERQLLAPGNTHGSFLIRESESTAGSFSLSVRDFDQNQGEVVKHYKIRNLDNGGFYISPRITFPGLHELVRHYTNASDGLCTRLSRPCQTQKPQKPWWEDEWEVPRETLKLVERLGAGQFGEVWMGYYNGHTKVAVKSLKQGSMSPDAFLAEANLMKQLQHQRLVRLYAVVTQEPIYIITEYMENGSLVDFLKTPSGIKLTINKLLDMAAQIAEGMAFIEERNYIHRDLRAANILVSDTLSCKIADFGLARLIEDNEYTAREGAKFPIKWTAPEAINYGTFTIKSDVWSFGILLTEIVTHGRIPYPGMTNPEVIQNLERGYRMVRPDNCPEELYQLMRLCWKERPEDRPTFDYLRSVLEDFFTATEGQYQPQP

LIM domain kinase 1 = LIM domain kinase 1 (Homo sapiens, UniProt P53667)
Sequence of LIM domain kinase 1 (P53667 whole entry, the tested form may be a part): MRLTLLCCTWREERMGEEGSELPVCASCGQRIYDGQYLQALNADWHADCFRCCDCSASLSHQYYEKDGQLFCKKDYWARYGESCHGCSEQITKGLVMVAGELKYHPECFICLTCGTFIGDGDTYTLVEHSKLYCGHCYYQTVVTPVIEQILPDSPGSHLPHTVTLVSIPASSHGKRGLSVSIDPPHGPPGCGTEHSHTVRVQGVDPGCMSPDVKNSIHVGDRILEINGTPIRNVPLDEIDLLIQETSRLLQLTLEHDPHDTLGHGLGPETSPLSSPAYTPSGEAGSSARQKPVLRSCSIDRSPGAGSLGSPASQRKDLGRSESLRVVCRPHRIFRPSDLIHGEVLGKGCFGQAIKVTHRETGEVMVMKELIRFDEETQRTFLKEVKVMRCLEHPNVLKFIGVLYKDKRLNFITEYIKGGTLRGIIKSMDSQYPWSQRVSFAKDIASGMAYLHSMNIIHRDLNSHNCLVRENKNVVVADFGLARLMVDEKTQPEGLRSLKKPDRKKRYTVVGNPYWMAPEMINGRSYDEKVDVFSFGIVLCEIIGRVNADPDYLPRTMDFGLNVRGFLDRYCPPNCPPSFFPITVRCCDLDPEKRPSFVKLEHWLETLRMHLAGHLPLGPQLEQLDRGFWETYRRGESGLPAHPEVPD

[5] = molecular target: T4, Ras-related protein Rab-10 (Homo sapiens, UniProt P61026)
T4 sequence (P61026 whole entry): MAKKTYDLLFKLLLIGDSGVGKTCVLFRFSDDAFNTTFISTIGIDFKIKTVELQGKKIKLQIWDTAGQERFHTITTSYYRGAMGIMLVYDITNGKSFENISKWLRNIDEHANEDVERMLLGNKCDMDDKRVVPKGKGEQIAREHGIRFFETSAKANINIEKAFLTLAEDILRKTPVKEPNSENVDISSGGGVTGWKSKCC

[6] = molecular target: Tyrosine-protein kinase Yes (Homo sapiens, UniProt P07947)
Sequence of Tyrosine-protein kinase Yes (P07947 whole entry): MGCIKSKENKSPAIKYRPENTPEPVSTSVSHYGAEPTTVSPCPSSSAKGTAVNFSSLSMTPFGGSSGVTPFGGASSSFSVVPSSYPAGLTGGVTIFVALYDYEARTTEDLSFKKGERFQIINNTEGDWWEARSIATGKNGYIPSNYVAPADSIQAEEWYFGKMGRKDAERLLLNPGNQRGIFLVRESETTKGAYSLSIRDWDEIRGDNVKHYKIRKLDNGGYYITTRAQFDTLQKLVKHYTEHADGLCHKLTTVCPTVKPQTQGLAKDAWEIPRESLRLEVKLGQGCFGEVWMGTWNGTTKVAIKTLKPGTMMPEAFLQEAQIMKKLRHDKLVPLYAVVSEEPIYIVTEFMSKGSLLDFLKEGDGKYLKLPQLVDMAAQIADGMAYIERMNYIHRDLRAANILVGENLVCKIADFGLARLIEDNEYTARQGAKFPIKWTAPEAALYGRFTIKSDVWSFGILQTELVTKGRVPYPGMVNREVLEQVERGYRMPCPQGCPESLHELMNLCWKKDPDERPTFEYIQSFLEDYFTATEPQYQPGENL

[7] = molecular target: T5, Dual specificity mitogen-activated protein kinase kinase 5 (Homo sapiens, UniProt Q13163)
T5 sequence (Q13163 whole entry): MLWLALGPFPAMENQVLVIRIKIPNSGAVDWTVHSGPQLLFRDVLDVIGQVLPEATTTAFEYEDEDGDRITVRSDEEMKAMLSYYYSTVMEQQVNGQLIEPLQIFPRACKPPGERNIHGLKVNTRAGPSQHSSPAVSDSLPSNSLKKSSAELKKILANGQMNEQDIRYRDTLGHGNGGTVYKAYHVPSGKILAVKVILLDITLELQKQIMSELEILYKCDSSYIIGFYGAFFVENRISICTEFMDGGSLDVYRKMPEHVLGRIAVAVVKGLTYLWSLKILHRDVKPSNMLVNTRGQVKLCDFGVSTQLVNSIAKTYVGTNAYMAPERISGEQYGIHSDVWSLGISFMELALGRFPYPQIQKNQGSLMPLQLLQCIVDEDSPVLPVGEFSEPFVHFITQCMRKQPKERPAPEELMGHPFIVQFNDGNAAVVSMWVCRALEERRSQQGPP

[8] = molecular target: RAC-alpha serine/threonine-protein kinase (Homo sapiens, UniProt P31749)
Sequence of RAC-alpha serine/threonine-protein kinase (P31749 whole entry): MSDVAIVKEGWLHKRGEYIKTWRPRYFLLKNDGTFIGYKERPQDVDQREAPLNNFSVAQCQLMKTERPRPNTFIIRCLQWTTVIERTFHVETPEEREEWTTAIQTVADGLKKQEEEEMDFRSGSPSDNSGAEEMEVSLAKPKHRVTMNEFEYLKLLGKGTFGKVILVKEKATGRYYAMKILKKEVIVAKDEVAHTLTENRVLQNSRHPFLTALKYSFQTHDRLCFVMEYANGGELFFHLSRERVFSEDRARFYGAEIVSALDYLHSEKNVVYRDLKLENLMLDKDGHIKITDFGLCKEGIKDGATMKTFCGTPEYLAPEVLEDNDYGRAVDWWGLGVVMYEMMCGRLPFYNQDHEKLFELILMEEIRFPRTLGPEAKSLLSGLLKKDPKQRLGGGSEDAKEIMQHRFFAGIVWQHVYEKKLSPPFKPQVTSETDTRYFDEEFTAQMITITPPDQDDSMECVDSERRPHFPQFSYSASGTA

[9] = molecular target: Protein-tyrosine kinase 6 (Homo sapiens, UniProt Q13882)
Sequence of Protein-tyrosine kinase 6 (Q13882 whole entry): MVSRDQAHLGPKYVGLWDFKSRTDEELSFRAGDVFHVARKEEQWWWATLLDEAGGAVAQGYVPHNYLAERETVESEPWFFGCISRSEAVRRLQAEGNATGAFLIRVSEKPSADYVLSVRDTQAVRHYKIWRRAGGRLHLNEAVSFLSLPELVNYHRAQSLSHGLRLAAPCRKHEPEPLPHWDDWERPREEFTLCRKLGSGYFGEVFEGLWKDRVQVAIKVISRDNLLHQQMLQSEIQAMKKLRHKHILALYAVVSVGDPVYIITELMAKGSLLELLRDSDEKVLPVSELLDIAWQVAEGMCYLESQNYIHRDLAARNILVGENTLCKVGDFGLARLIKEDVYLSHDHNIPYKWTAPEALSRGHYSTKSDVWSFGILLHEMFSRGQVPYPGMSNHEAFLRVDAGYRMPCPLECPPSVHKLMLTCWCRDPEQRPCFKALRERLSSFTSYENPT
Also: in the data inactive means no Kd found up to 30 µM.

SMILES	Kd [1]	Kd [2]	Kd [3]	Kd [4]	Kd (LIM domain kinase 1)	Kd [5]	Kd [6]	Kd [7]	Kd [8]	Kd [9]
N[C@@H]1CCCN(c2c(/C=C3\SC(=O)NC3=O)cccc2-c2ccccc2)C1	> 30 µM (inactive)	> 30 µM (inactive)	> 30 µM (inactive)	> 30 µM (inactive)	> 30 µM (inactive)	> 30 µM (inactive)	> 30 µM (inactive)	> 30 µM (inactive)	> 30 µM (inactive)	> 30 µM (inactive)
CNS(=O)(=O)Nc1nccc(Cc2c(C)c3ccc(Oc4ncccn4)cc3oc2=O)c1F [AVUTOMETINIB]	> 30 µM (inactive)	> 30 µM (inactive)	> 30 µM (inactive)	> 30 µM (inactive)	> 30 µM (inactive)	> 30 µM (inactive)	> 30 µM (inactive)	2 µM (active)	> 30 µM (inactive)	> 30 µM (inactive)
COc1cc(CCc2cc(NC(=O)c3ccc(N4C[C@@H](C)N[C@@H](C)C4)cc3)n[nH]2)cc(OC)c1 [AZD-4547]	12.9 µM (active)	> 30 µM (inactive)	> 30 µM (inactive)	> 30 µM (inactive)	> 30 µM (inactive)	> 30 µM (inactive)	> 30 µM (inactive)	> 30 µM (inactive)	> 30 µM (inactive)	> 30 µM (inactive)
CCS(=O)(=O)N1CC(CC#N)(n2cc(-c3ncnc4[nH]ccc34)cn2)C1 [BARICITINIB]	> 30 µM (inactive)	0.622 µM	> 30 µM (inactive)	> 30 µM (inactive)	> 30 µM (inactive)	> 30 µM (inactive)	> 30 µM (inactive)	> 30 µM (inactive)	> 30 µM (inactive)	> 30 µM (inactive)
Cc1cc2c(F)c(Oc3ncnn4cc(OC[C@@H](C)OC(=O)[C@H](C)N)c(C)c34)ccc2[nH]1 [BRIVANIB ALANINATE]	> 30 µM (inactive)	> 30 µM (inactive)	> 30 µM (inactive)	> 30 µM (inactive)	> 30 µM (inactive)	> 30 µM (inactive)	> 30 µM (inactive)	> 30 µM (inactive)	> 30 µM (inactive)	> 30 µM (inactive)
O=C(c1ccc(F)c(F)c1Nc1ccc(I)cc1F)N1CC(O)([C@@H]2CCCCN2)C1 [COBIMETINIB]	> 30 µM (inactive)	> 30 µM (inactive)	> 30 µM (inactive)	> 30 µM (inactive)	> 30 µM (inactive)	> 30 µM (inactive)	> 30 µM (inactive)	> 30 µM (inactive)	> 30 µM (inactive)	> 30 µM (inactive)
COC(=O)N[C@@H](C)CNc1nccc(-c2cn(C(C)C)nc2-c2cc(Cl)cc(NS(C)(=O)=O)c2F)n1 [ENCORAFENIB]	> 30 µM (inactive)	> 30 µM (inactive)	> 30 µM (inactive)	> 30 µM (inactive)	0.026 µM (active)	> 30 µM (inactive)	> 30 µM (inactive)	> 30 µM (inactive)	> 30 µM (inactive)	> 30 µM (inactive)
CO[C@H]1C[C@@H]2CC[C@@H](C)[C@@](O)(O2)C(=O)C(=O)N2CCCC[C@H]2C(=O)O[C@H]([C@H](C)C[C@@H]2CC[C@@H](OCCO)[C@H](OC)C2)CC(=O)[C@H](C)/C=C(\C)[C@@H](O)[C@@H](OC)C(=O)[C@H](C)C[C@H](C)/C=C/C=C/C=C/1C [EVEROLIMUS]	> 30 µM (inactive)	> 30 µM (inactive)	> 30 µM (inactive)	> 30 µM (inactive)	> 30 µM (inactive)	> 30 µM (inactive)	> 30 µM (inactive)	> 30 µM (inactive)	> 30 µM (inactive)	> 30 µM (inactive)
O=C1NC(=O)/C(=C/c2ccc3nccc(-c4ccncc4)c3c2)S1 [GSK-1059615]	> 30 µM (inactive)	> 30 µM (inactive)	> 30 µM (inactive)	> 30 µM (inactive)	> 30 µM (inactive)	> 30 µM (inactive)	> 30 µM (inactive)	> 30 µM (inactive)	> 30 µM (inactive)	> 30 µM (inactive)

The next lines start with the values.

Kd [1]	Kd [2]	Kd [3]	Kd [4]	Kd (LIM domain kinase 1)	Kd [5]	Kd [6]	Kd [7]	Kd [8]	Kd [9]	SMILES
> 30 µM (inactive)	0.033 µM (active)	> 30 µM (inactive)	1.27 µM (active)	3.98 µM (active)	> 30 µM (inactive)	0.781 µM (active)	> 30 µM (inactive)	> 30 µM (inactive)	0.061 µM (active)	COc1cc(N2CCC(N3CCN(C)CC3)CC2)ccc1Nc1ncnc(Nc2ccccc2S(=O)(=O)C(C)C)n1 [ASP-3026]
> 30 µM (inactive)	> 30 µM (inactive)	> 30 µM (inactive)	> 30 µM (inactive)	> 30 µM (inactive)	> 30 µM (inactive)	> 30 µM (inactive)	> 30 µM (inactive)	> 30 µM (inactive)	> 30 µM (inactive)	Cc1cc([C@@H](C)Nc2ccccc2C(=O)O)c2nc(N3CCOCC3)cc(=O)n2c1 [AZD-6482]
> 30 µM (inactive)	> 30 µM (inactive)	> 30 µM (inactive)	> 30 µM (inactive)	> 30 µM (inactive)	> 30 µM (inactive)	> 30 µM (inactive)	> 30 µM (inactive)	> 30 µM (inactive)	> 30 µM (inactive)	COc1ccc(-c2ccc3c(N4CCOC[C@@H]4C)nc(N4CCOC[C@@H]4C)nc3n2)cc1CO [AZD-8055]
> 30 µM (inactive)	> 30 µM (inactive)	> 30 µM (inactive)	> 30 µM (inactive)	> 30 µM (inactive)	> 30 µM (inactive)	> 30 µM (inactive)	> 30 µM (inactive)	> 30 µM (inactive)	> 30 µM (inactive)	C[C@@H](Nc1cc(F)cc(F)c1)c1cc(C(=O)N(C)C)cc2c(=O)cc(N3CCOCC3)oc12 [AZD-8186]

Reference: ChEMBL document CHEMBL3991601, “The target landscape of clinical kinase drugs” (Science, 2017)
